# Experimental data from US10517889B2, “Modulators of SMAD7 expression” (Ionis Pharmaceuticals, Inc., priority 2017, dated 2019).
# Strand notation (5' to 3'): a small letter for the sugar, then the base; units joined by * are phosphorothioate-linked, units joined directly phosphodiester-linked; [ ] holds rarer units or linkages, { } end groups; capitals alone tell only the bases. k = constrained ethyl (cEt); [5mC] = 5-methylcytosine; d = 2'-deoxy (DNA)
# Test system: human SMAD7 mRNA
# Assay: Antisense inhibition of human SMAD7 mRNA expression in Hep3B cells by 3-10-3 cEt gapmers, 10,000 nM, electroporation (Example 2)
# Type: cell-based
# Conditions: Hep3B cells, 10,000 nM antisense oligonucleotide, electroporation, approximately 24 hours, RT-PCR primer probe set RTS5062, relative to untreated control cells
# Summary of the method: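 qRT-PCR (RTS5062) of SMAD7 mRNA, normalised to RIBOGREEN total RNA, gave percent inhibition relative to untreated controls. Hep3B cells at 20,000 per well received 10,000 nM oligonucleotide by electroporation, with ~24 h treatment.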
row,Substance,% Inhibition [%]
1,798819 (kT*k[5mC]*k[5mC]*d[5mC]*dA*dG*dT*dA*dT*dG*d[5mC]*d[5mC]*dA*k[5mC]*k[5mC]*kA; antisense) [compound 798819],0
2,798820 (kT*k[5mC]*kT*d[5mC]*d[5mC]*dT*d[5mC]*d[5mC]*d[5mC]*dA*dG*dT*dA*kT*kG*k[5mC]; antisense) [compound 798820],24
3,798821 (kA*kG*k[5mC]*d[5mC]*dT*d[5mC]*d[5mC]*d[5mC]*d[5mC]*dA*d[5mC]*dT*d[5mC]*kT*k[5mC]*kG; antisense) [compound 798821],32
4,798822 (kG*kT*kA*dG*dA*dG*d[5mC]*d[5mC]*dT*d[5mC]*d[5mC]*d[5mC]*d[5mC]*kA*k[5mC]*kT; antisense) [compound 798822],56
5,798825 (k[5mC]*kT*kG*dG*dA*d[5mC]*dA*d[5mC]*dA*dG*dT*dA*dG*kA*kG*k[5mC]; antisense) [compound 798825],24
6,798826 (k[5mC]*kT*k[5mC]*d[5mC]*dT*dG*dG*dA*d[5mC]*dA*d[5mC]*dA*dG*kT*kA*kG; antisense) [compound 798826],14
7,798827 (kA*kG*kA*dG*dA*dG*dG*dG*d[5mC]*dT*d[5mC]*d[5mC]*dT*kG*kG*kA; antisense) [compound 798827],21
8,798835 (k[5mC]*kG*kA*dG*dG*d[5mC]*dA*dA*dA*dA*dG*d[5mC]*d[5mC]*kA*kT*kT; antisense) [compound 798835],22
9,798836 (kG*kT*k[5mC]*d[5mC]*dG*dA*dG*dG*d[5mC]*dA*dA*dA*dA*kG*k[5mC]*k[5mC]; antisense) [compound 798836],56
10,798837 (kG*k[5mC]*kT*dG*dT*d[5mC]*d[5mC]*dG*dA*dG*dG*d[5mC]*dA*kA*kA*kA; antisense) [compound 798837],33
11,798838 (k[5mC]*k[5mC]*kG*dA*dA*dT*dT*dG*dA*dG*d[5mC]*dT*dG*kT*k[5mC]*k[5mC]; antisense) [compound 798838],58
12,798839 (kG*kT*kT*dG*dT*d[5mC]*d[5mC]*dG*dA*dA*dT*dT*dG*kA*kG*k[5mC]; antisense) [compound 798839],47
13,798840 (k[5mC]*kT*k[5mC]*dT*dT*dG*dT*dT*dG*dT*d[5mC]*d[5mC]*dG*kA*kA*kT; antisense) [compound 798840],56
14,798841 (k[5mC]*kT*kG*dA*d[5mC]*dT*d[5mC]*dT*dT*dG*dT*dT*dG*kT*k[5mC]*k[5mC]; antisense) [compound 798841],0
15,798842 (k[5mC]*kA*kG*d[5mC]*dT*dG*dA*d[5mC]*dT*d[5mC]*dT*dT*dG*kT*kT*kG; antisense) [compound 798842],0

# Same assay, conditions: Hep3B cells, electroporation with 10,000 nM antisense oligonucleotide, approximately 24 hours, SMAD7 mRNA by RT-PCR (RTS5062), relative to untreated control cells
row,Substance,% Inhibition [%]
1,798811 (k[5mC]*kA*kG*dA*dA*dG*dA*dA*dG*dT*dT*dG*dG*kG*kA*kA; antisense) [compound 798811],1
2,798812 (k[5mC]*kT*k[5mC]*d[5mC]*dA*dG*dA*dA*dG*dA*dA*dG*dT*kT*kG*kG; antisense) [compound 798812],0
3,798813 (k[5mC]*k[5mC]*kG*dA*dT*d[5mC]*d[5mC]*d[5mC]*d[5mC]*dA*dG*dG*d[5mC]*kT*k[5mC]*k[5mC]; antisense) [compound 798813],23
4,798814 (kA*k[5mC]*k[5mC]*dA*dG*dT*dG*dT*dG*dA*d[5mC]*d[5mC]*dG*kA*kT*k[5mC]; antisense) [compound 798814],25
5,798815 (k[5mC]*kG*k[5mC]*dA*d[5mC]*d[5mC]*dA*dG*dT*dG*dT*dG*dA*k[5mC]*k[5mC]*kG; antisense) [compound 798815],45
6,798816 (k[5mC]*k[5mC]*kA*d[5mC]*dG*d[5mC]*dA*d[5mC]*d[5mC]*dA*dG*dT*dG*kT*kG*kA; antisense) [compound 798816],24
7,798817 (kG*k[5mC]*k[5mC]*dA*d[5mC]*d[5mC]*dA*d[5mC]*dG*d[5mC]*dA*d[5mC]*d[5mC]*kA*kG*kT; antisense) [compound 798817],26
8,798818 (kT*kA*kT*dG*d[5mC]*d[5mC]*dA*d[5mC]*d[5mC]*dA*d[5mC]*dG*d[5mC]*kA*k[5mC]*k[5mC]; antisense) [compound 798818],63
9,798828 (kA*kT*k[5mC]*d[5mC]*dA*dG*dA*dG*dA*dG*dG*dG*d[5mC]*kT*k[5mC]*k[5mC]; antisense) [compound 798828],18
10,798829 (kG*kA*kT*dA*dT*d[5mC]*d[5mC]*dA*dG*dA*dG*dA*dG*kG*kG*k[5mC]; antisense) [compound 798829],0
11,798830 (kG*kA*kA*dG*dA*dT*dA*dT*d[5mC]*d[5mC]*dA*dG*dA*kG*kA*kG; antisense) [compound 798830],17
12,798831 (kA*kT*kA*dG*dA*dA*dG*dA*dT*dA*dT*d[5mC]*d[5mC]*kA*kG*kA; antisense) [compound 798831],0
13,798832 (kA*kT*k[5mC]*dA*dT*dA*dG*dA*dA*dG*dA*dT*dA*kT*k[5mC]*k[5mC]; antisense) [compound 798832],41
14,798833 (kT*kA*kG*dA*dT*d[5mC]*dA*dT*dA*dG*dA*dA*dG*kA*kT*kA; antisense) [compound 798833],48
15,798834 (kA*kA*kA*dA*dG*d[5mC]*d[5mC]*dA*dT*dT*d[5mC]*d[5mC]*d[5mC]*k[5mC]*kT*kG; antisense) [compound 798834],55

# Same assay, conditions: Hep3B cells, electroporation with 10,000 nM antisense oligonucleotide, approximately 24 hours, primer probe set RTS5062, relative to untreated control cells
row,Substance,% inhibition of SMAD7 mRNA expression [%]
1,798788 (kT*k[5mC]*kT*dG*dG*dA*dG*dT*dA*dA*dG*dG*dA*kG*kG*kG; antisense) [compound 798788],31
2,798789 (kG*kT*kA*dT*d[5mC]*dT*dG*dG*dA*dG*dT*dA*dA*kG*kG*kA; antisense) [compound 798789],44
3,798790 (k[5mC]*kG*kG*dG*dT*dA*dT*d[5mC]*dT*dG*dG*dA*dG*kT*kA*kA; antisense) [compound 798790],49
4,798791 (k[5mC]*kA*kT*d[5mC]*dG*dG*dG*dT*dA*dT*d[5mC]*dT*dG*kG*kA*kG; antisense) [compound 798791],25
5,798807 (kA*kT*k[5mC]*dT*dG*dA*dA*dA*dG*d[5mC]*d[5mC]*d[5mC]*d[5mC]*k[5mC]*k[5mC]*kA; antisense) [compound 798807],64
6,798808 (kG*kG*kA*dA*dT*d[5mC]*dT*dG*dA*dA*dA*dG*d[5mC]*k[5mC]*k[5mC]*k[5mC]; antisense) [compound 798808],44
7,798809 (kT*kT*kG*dG*dG*dA*dA*dT*d[5mC]*dT*dG*dA*dA*kA*kG*k[5mC]; antisense) [compound 798809],2
8,798810 (kA*kA*kG*dT*dT*dG*dG*dG*dA*dA*dT*d[5mC]*dT*kG*kA*kA; antisense) [compound 798810],0

# Same assay, conditions: Hep3B cells, electroporation, 10,000 nM antisense oligonucleotide, approximately 24 hours, RTS5062, relative to untreated control cells
row,Substance,% inhibition of SMAD7 mRNA expression [%]
1,798806 (kT*kG*kA*dA*dA*dG*d[5mC]*d[5mC]*d[5mC]*d[5mC]*d[5mC]*d[5mC]*dA*kG*kG*kG; antisense) [compound 798806],50
